From the supplement of paper PMC4858399
Structures can show the parent of a compound that is named as a salt.

What was measured:
Settings in all cases: exposure time 48 h
[1] = test system: Caenorhabditis elegans N2; test: AC50 for larval growth inhibition (Hill fit); higher = less potent
Method in brief: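 AC50 values come from a constrained Hill fit by weighted genetic-algorithm regression and are censored when out of range. The fit used only wells with at least 10 worms. Each well of a 96-well plate held 50 synchronised C. elegans N2 L1 larvae in K-medium with killed OP50, 1% DMSO and 0.5–200 µM chemical for 48 h at 20°C. A COPAS Biosort recorded each worm's size as extinction, which was log-transformed and averaged per well.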

[2] = test system: Caenorhabditis elegans N2; test: lowest effective concentration for larval growth inhibition (size below effect threshold); higher = less potent
Method in brief: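 Log-transformed well means of per-worm extinction, read as size on a Biosort, came from 50 C. elegans N2 L1 larvae per 96-well grown 48 h at 20°C in K-medium with killed bacteria, 1% DMSO and 0.5 to 200 µM chemical. The lowest effective concentration is the first dose at which the plate-adjusted mean size is below the threshold and stays below it at every higher dose. The threshold is 5.665.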

[3] = test system: Caenorhabditis elegans N2; test: mean nematode size ln(EXT) after 48 h, plate-adjusted (DMSO control set to 6) (ln(EXT), control-adjusted); higher = larger nematodes / less growth inhibition
Method in brief: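 A growth model removed debris from Biosort extinction readings taken on each worm. These worms were synchronised C. elegans N2 L1 larvae, 50 per well in 4–6 wells per treatment, grown for 48 h at 20°C in K-medium with killed OP50, 1% DMSO and 0.5–200 µM chemical. Readings were natural-logged and averaged by well to give mean size. On each plate, the vehicle control mean was subtracted and 6 was added.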

Structure (SMILES) | AC50 for larval growth inhibition [1] | lowest effective concentration [2] | mean nematode size ln(EXT) (ln) ([3]; 0.5 µM) | mean nematode size ln(EXT) (ln) ([3]; 1 µM) | mean nematode size ln(EXT) (ln) ([3]; 5 µM) | mean nematode size ln(EXT) (ln) ([3]; 10 µM) | mean nematode size ln(EXT) (ln) ([3]; 50 µM) | mean nematode size ln(EXT) (ln) ([3]; 100 µM) | mean nematode size ln(EXT) (ln) ([3]; 200 µM)
Nc1ccccc1N [1,2-Phenylenediamine] | > 200 µM | 50 µM | 5.84 | 5.95 | 5.92 | 5.74 | 5.66 | 5.46 | 5.19
CCCCCCCCCCC [Undecane] | > 200 µM | 200 µM | 5.95 | 5.92 | 5.86 | 5.83 | 5.86 | 5.9 | 5.57
O=C(O)CCCCC(=O)O [Adipic acid] | > 200 µM | 200 µM | 5.82 | 5.73 | 5.75 | 5.76 | 5.76 | 5.74 | 5.5
C=CCOC(=O)c1ccccc1C(=O)OCC=C [Diallyl phthalate] | > 200 µM | 200 µM | 5.88 | 5.92 | 5.94 | 5.96 | 5.88 | 5.84 | 5.65
COP(=O)(OC)C(O)C(Cl)(Cl)Cl (stereo not drawn) [Trichlorfon] | 80.1 µM | 5 µM | 5.57 | 5.69 | 5.42 | 5.31 | 4.77 | 4.73 | 3.96
ClC1=C(Cl)C2(Cl)C3C(Cl)C(Cl)CC3C1(Cl)C2(Cl)Cl (stereo not drawn) [Chlordane] | 8.58 µM | 5 µM | 5.98 | 5.93 | 5.24 | 4.63 | 3.8 | 3.81 | 3.48
COC(=O)NC(=S)Nc1ccccc1NC(=S)NC(=O)OC [Thiophanate-methyl] | > 200 µM | 200 µM | 5.88 | 5.84 | 5.76 | 5.87 | 5.83 | 5.73 | 5.41
CCCCOCCOCCOCc1cc2c(cc1CCC)OCO2 [Piperonyl butoxide] | 76.9 µM | 50 µM | 5.87 | 5.86 | 5.8 | 5.86 | 5.48 | 5.43 | 5.41
C[Si]1(C)O[Si](C)(C)O[Si](C)(C)O[Si](C)(C)O1 [Octamethylcyclotetrasiloxane] | 183 µM | 200 µM | 5.99 | 5.98 | 5.96 | 5.97 | 5.98 | 6.05 | 4.48
CCCCCCCCCCCCCN1CC(C)OC(C)C1 (stereo not drawn) [Tridemorph] | 174 µM | 100 µM | 5.89 | 5.94 | 5.84 | 5.85 | 5.73 | 5.49 | 4.26
COP(=S)(OC)SCN1C(=O)c2ccccc2C1=O [Phosmet] | > 200 µM | 10 µM | 5.89 | 5.76 | 5.86 | 5.61 | 5.66 | 5.52 | 5.02
CNC(=O)Oc1cccc(/N=C/N(C)C)c1 [Formetanate hydrochloride] | 62.8 µM | 100 µM | 5.85 | 6.01 | 6 | 5.93 | 5.73 | 5.59 | 5.47
[Cl][Hg][Cl] [Mercuric chloride] | 7.77 µM | 5 µM | 5.91 | 5.84 | 5.47 | 4.41 | 3.59 | 3.72 | 3.64
N#CSCSC#N [Methylene bis(thiocyanate)] | 17.5 µM | ≤ 0.5 µM | 5.41 | 5.47 | 5.22 | 5.16 | 3.74 | 3.85 | 3.4
CCCCOC(=O)c1ccc(O)cc1 [Butylparaben] | 103 µM | 200 µM | 5.84 | 5.8 | 5.75 | 5.78 | 5.96 | 5.68 | 5.19
CCCCCCCCOC(=O)c1cc(O)c(O)c(O)c1 [Octyl gallate] | 55.1 µM | 50 µM | 5.79 | 5.87 | 5.84 | 5.88 | 4.63 | 4.47 | 3.77
Oc1cc(Cl)ccc1Oc1ccc(Cl)cc1Cl [Triclosan] | 49.9 µM | 10 µM | 5.89 | 5.86 | 5.85 | 5.64 | 4.79 | 4.27 | 4
Cc1ccc(/N=C/N(C)/C=N/c2ccc(C)cc2C)c(C)c1 [Amitraz] | 200 µM | 200 µM | 6.02 | 5.93 | 6.14 | 5.97 | 5.95 | 6.57 | 4.72
O=C1C2CC=CCC2C(=O)N1SC(Cl)(Cl)Cl (stereo not drawn) [Captan] | 85.6 µM | 50 µM | 5.8 | 5.75 | 5.73 | 5.84 | 5.45 | 4.27 | 3.67
O=C(O)COc1nc(Cl)c(Cl)cc1Cl [Triclopyr] | 156 µM | 50 µM | 6.07 | 6.1 | 6.13 | 6.08 | 5.61 | 5.48 | 4.06
CCc1ccc(O)c(C(C)(C)C)c1 [2-tert-Butyl-4-ethylphenol] | > 200 µM | 50 µM | 5.77 | 5.75 | 5.72 | 5.86 | 5.45 | 5.58 | 4.88
ClC1=C(Cl)C2(Cl)C3C4CC(C5OC45)C3C1(Cl)C2(Cl)Cl (stereo not drawn) [Endrin] | 8.83 µM | 5 µM | 5.93 | 5.85 | 4.99 | 4.95 | 3.81 | 3.9 | 3.75
